The IC50 is the concentration that gives 50% inhibition.

Some results are limits rather than exact numbers.

The text below walks through data of patent publication US20240376099A1, “COMPOUNDS AND COMPOSITIONS AS INHIBITORS OF ENDOSOMAL TOLL-LIKE RECEPTORS” (Novartis AG, priority 2016, published 2024).

The target of this assay is T1, TLR8 (Homo sapiens, UniProt Q9NR97).
T1 sequence (Q9NR97 27-1041): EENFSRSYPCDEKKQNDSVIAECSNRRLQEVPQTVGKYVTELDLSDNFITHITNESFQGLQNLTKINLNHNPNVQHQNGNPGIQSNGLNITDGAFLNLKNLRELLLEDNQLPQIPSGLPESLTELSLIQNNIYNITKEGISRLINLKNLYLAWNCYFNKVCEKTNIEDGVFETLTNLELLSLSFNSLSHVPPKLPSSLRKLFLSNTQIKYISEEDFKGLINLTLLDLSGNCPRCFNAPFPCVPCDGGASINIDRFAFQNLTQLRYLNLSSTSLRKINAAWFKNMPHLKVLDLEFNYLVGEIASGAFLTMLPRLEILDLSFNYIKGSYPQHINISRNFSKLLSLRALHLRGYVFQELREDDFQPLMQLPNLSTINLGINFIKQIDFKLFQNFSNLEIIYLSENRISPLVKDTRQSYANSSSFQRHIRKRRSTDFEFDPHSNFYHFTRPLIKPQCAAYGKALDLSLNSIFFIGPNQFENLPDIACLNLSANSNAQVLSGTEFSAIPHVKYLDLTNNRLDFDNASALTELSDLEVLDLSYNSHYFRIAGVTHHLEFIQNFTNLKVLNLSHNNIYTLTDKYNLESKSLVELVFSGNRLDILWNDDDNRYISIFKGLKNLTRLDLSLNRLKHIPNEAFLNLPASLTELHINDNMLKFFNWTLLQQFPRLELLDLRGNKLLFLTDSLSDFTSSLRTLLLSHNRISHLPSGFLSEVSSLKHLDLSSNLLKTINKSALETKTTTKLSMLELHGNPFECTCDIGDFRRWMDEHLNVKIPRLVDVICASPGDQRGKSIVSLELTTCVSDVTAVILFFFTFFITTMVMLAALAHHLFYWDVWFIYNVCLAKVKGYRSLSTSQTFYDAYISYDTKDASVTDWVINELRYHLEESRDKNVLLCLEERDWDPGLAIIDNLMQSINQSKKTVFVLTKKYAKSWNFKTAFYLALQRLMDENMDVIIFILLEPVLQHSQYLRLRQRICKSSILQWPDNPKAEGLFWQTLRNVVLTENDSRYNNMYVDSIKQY
The experiment in a line: huPBMC TLR8 Antagonist IL-6 TR-FRET Assay. In kind it is cell-based. The arrangement: Fresh blood was collected from normal human donors; endogenous in cells; host or cells: human PBMCs from fresh donor blood. As to conditions: human PBMCs stimulated with ssRNA40 1 μg/ml (DOTAP), 14-16 hrs; IL-6 TR-FRET read-out. A digest of the protocol: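 Human PBMCs from fresh donor blood (150,000 cells/well) stimulated 14–16 h at 37 °C with DOTAP-complexed ssRNA40 (final 1 μg/ml for TLR8, 10 μg/mL for TLR7) or ODN2216 (final 0.3 μM, TLR9), 0.25% DMSO, ten-point 1/3 compound dilutions. Supernatant IL-6 read by HTRF (TLR8); IFNα by IFNα2b AlphaLISA (TLR7/TLR9).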
On the technique in general: Time-resolved FRET reads energy transfer from a long-lived donor to a nearby acceptor.
Regarding `CNCCC(=O)NC12CCC(Cn3nc(C)c4c3CCN(c3cc(C)nc5c3cnn5C)C4)(CC1)CC2` [compound 142, N-(4-((5-(1,6-dimethyl-1H-pyrazolo[3,4-b]pyridin-4-yl)-3-methyl-4,5,6,7-tetrahydro-1H-pyrazolo[4,3-c]pyridin-1-yl)methyl)bicyclo[2.2.2]octan-1-yl)-3-(methylamino)propanamide], the IC50 was 932 nM. Next, `Cc1cc(N2CCc3c(c(C)nn3CC34CCC(NCC5(CO)COC5)(CC3)CC4)C2)c2cnn(C)c2n1` [compound 137, (3-(((4-((5-(1,6-dimethyl-1H-pyrazolo[3,4-b]pyridin-4-yl)-3-methyl-4,5,6,7-tetrahydro-1H-pyrazolo[4,3-c]pyridin-1-yl)methyl)bicyclo[2.2.2]octan-1-yl)amino)methyl)oxetan-3-yl)methanol]: 68 nM; `Cc1nc(N2CCc3c(c(C)nn3CC34CCC(N(C5CCC5)C5CCC5)(CC3)CC4)C2)c2c(n1)c(C)nn2C` [compound 28, N,N-dicyclobutyl-4-((3-methyl-5-(1,3,5-trimethyl-1H-pyrazolo[4,3-d]pyrimidin-7-yl)-4,5,6,7-tetrahydro-1H-pyrazolo[4,3-c]pyridin-1-yl)methyl)bicyclo[2.2.2]octan-1-amine]: 641 nM; `Cc1cc(N2CCc3c(c(C)nn3CC34CCC(NC(=O)CCN)(CC3)CC4)C2)c2cnn(C)c2n1` [compound 115, 3-amino-N-(4-((5-(1,6-dimethyl-1H-pyrazolo[3,4-b]pyridin-4-yl)-3-methyl-4,5,6,7-tetrahydro-1H-pyrazolo[4,3-c]pyridin-1-yl)methyl)bicyclo[2.2.2]octan-1-yl)propanamide]: 245 nM. For the compound `CCn1ncc2c(N3CCc4c(c(C)nn4CC45CCC(NC(=O)[C@@H]6COCCN6)(CC4)CC5)C3)cc(C)nc21` [compound 141, (S)-N-(4-((5-(1-ethyl-6-methyl-1H-pyrazolo[3,4-b]pyridin-4-yl)-3-methyl-4,5,6,7-tetrahydro-1H-pyrazolo[4,3-c]pyridin-1-yl)methyl)bicyclo[2.2.2]octan-1-yl)morpholine-3-carboxamide], the IC50 was 2290 nM.

Turning to `Cc1cc(N2CCc3c(c(C)nn3CC34CCC(NC(=O)C5CNCCO5)(CC3)CC4)C2)c2cnn(C)c2n1` (stereo not drawn) [compound 125, N-(4-((5-(1,6-dimethyl-1H-pyrazolo[3,4-b]pyridin-4-yl)-3-methyl-4,5,6,7-tetrahydro-1H-pyrazolo[4,3-c]pyridin-1-yl)methyl)bicyclo[2.2.2]octan-1-yl)morpholine-2-carboxamide], the IC50 came out at 43 nM. Next, `[2H]C([2H])([2H])N(CC(=O)NC12CCC(Cn3nc(C)c4c3CCN(c3cc(C)nc5c3cnn5C)C4)(CC1)CC2)C([2H])([2H])[2H]` [compound 134, 2-(bis(trideuteromethyl)amino)-N-(4-((5-(1,6-dimethyl-1H-pyrazolo[3,4-b]pyridin-4-yl)-3-methyl-4,5,6,7-tetrahydro-1H-pyrazolo[4,3-c]pyridin-1-yl)methyl)bicyclo[2.2.2]octan-1-yl)acetamide]: 93 nM; `Cc1cc(N2CCc3c(c(C)nn3CC34CCC(NC(=O)OC(C)(C)C)(CC3)CC4)C2)c2ccncc2n1` [Compound No. 147, tert-butyl (4-((3-methyl-5-(2-methyl-1,7-naphthyridin-4-yl)-4,5,6,7-tetrahydro-1H-pyrazolo[4,3-c]pyridin-1-yl)methyl)bicyclo[2.2.2]octan-1-yl)carbamate]: greater than 10000 nM. Next, `Cc1nc(N2CCc3c(c(C)nn3CC34CCC(N)(CC3)CC4)C2)c2c(n1)c(C)nn2C` [Compound No. 26, 4-((3-methyl-5-(1,3,5-trimethyl-1H-pyrazolo[4,3-d]pyrimidin-7-yl)-4,5,6,7-tetrahydro-1H-pyrazolo[4,3-c]pyridin-1-yl)methyl)bicyclo[2.2.2]octan-1-amine]: 289 nM; `Cc1nc(N2CCc3c(c(C)nn3CC34CCC(N5CCOCC5)(CC3)CC4)C2)c2c(C)noc2n1` [compound 37, 3,6-dimethyl-4-(3-methyl-1-((4-morpholinobicyclo[2.2.2]octan-1-yl)methyl)-6,7-dihydro-1H-pyrazolo[4,3-c]pyridin-5(4H)-yl)isoxazolo[5,4-d]pyrimidine]: 79 nM; `CNCC(=O)NC12CCC(Cn3nc(C)c4c3CCN(c3cc(C)nc5c3cnn5C)C4)(CC1)CC2` [compound 121, N-(4-((5-(1,6-dimethyl-1H-pyrazolo[3,4-b]pyridin-4-yl)-3-methyl-4,5,6,7-tetrahydro-1H-pyrazolo[4,3-c]pyridin-1-yl)methyl)bicyclo[2.2.2]octan-1-yl)-2-(methylamino)acetamide]: 39 nM.

`Cc1cc(N2CCc3c(c(C)nn3CC34CCC(NC(=O)OC(C)(C)C)(CC3)C4)C2)c2cnn(C)c2n1` [compound 148, tert-butyl (4-((5-(1,6-dimethyl-1H-pyrazolo[3,4-b]pyridin-4-yl)-3-methyl-4,5,6,7-tetrahydro-1H-pyrazolo[4,3-c]pyridin-1-yl)methyl)bicyclo[2.2.1]heptan-1-yl)carbamate]: the IC50 is greater than 10000 nM.

For `Cc1nc(N2CCc3c(c(C)nn3CC34CCC(N5CCCCC5)(CC3)CC4)C2)c2cn[nH]c2n1` [compound 29, 6-methyl-4-(3-methyl-1-((4-(piperidin-1-yl)bicyclo[2.2.2]octan-1-yl)methyl)-6,7-dihydro-1H-pyrazolo[4,3-c]pyridin-5(4H)-yl)-1H-pyrazolo[3,4-d]pyrimidine], the half-inhibitory concentration (IC50) came out at 16 nM.

For the compound `Cc1nc(N2CCc3c(c(C)nn3CC34CCC(NC(=O)[C@@H]5CNCCO5)(CC3)CC4)C2)c2c(n1)c(C)nn2C` [compound 34, (S)-N-(4-((3-methyl-5-(1,3,5-trimethyl-1H-pyrazolo[4,3-d]pyrimidin-7-yl)-4,5,6,7-tetrahydro-1H-pyrazolo[4,3-c]pyridin-1-yl)methyl)bicyclo[2.2.2]octan-1-yl)morpholine-2-carboxamide], the IC50 came out at 29 nM. With `Cc1cc(N2CCc3c(c(C)nn3CC34CCC(N5CCN(C)CC5=O)(CC3)CC4)C2)c2cnn(C)c2n1` [Compound No. 108, 1-(4-((5-(1,6-dimethyl-1H-pyrazolo[3,4-b]pyridin-4-yl)-3-methyl-4,5,6,7-tetrahydro-1H-pyrazolo[4,3-c]pyridin-1-yl)methyl)bicyclo[2.2.2]octan-1-yl)-4-methylpiperazin-2-one], the IC50 stood at 44 nM. Next, `Cc1cc(N2CCc3c(c(C)nn3CC34CCC(NC(=O)[C@H]5COCCN5)(CC3)CC4)C2)c2cnn(C)c2n1` [Compound No. 9, (R)—N-(4-((5-(1,6-dimethyl-1H-pyrazolo[3,4-b]pyridin-4-yl)-3-methyl-4,5,6,7-tetrahydro-1H-pyrazolo[4,3-c]pyridin-1-yl)methyl)bicyclo[2.2.2]octan-1-yl)morpholine-3-carboxamide]: 201 nM; `Cc1cc(N2CCc3c(c(C)nn3CC34CCC(N(C)C)(CC3)CC4)C2)c2cnn(C)c2n1` [Compound No. 43, 4-((5-(1,6-dimethyl-1H-pyrazolo[3,4-b]pyridin-4-yl)-3-methyl-4,5,6,7-tetrahydro-1H-pyrazolo[4,3-c]pyridin-1-yl)methyl)-N,N-dimethylbicyclo[2.2.2]octan-1-amine]: 51 nM; `CCNCC(=O)NC12CCC(Cn3nc(C)c4c3CCN(c3nc(C)nc5[nH]ncc35)C4)(CC1)CC2` [compound 20, 2-(ethylamino)-N-(4-((3-methyl-5-(6-methyl-1H-pyrazolo[3,4-d]pyrimidin-4-yl)-4,5,6,7-tetrahydro-1H-pyrazolo[4,3-c]pyridin-1-yl)methyl)bicyclo[2.2.2]octan-1-yl)acetamide]: 31 nM.
